Earlier results in patent US20120289565A1, “COMBINATIONS OF TOLTERODINE AND SALIVARY STIMULANTS FOR THE TREATMENT OF OVERACTIVE BLADDER” (TheraVida, Inc., priority 2011, published 2012).

Conditions: 5 mg of pilocarpine

## CC[C@@H]1C(=O)OC[C@@H]1Cc1cncn1C [pilocarpine]
  time of maximum saliva output after administration: about 30 minutes
